Target: T1, human H3R (histamine receptor 3) (Homo sapiens, UniProt Q9Y5N1)
T1 construct: gene HRH3; human H3R fused via TEV protease site to Gal4-VP16 transcription factor; stably expressed in H3-bla U2OS cells (Invitrogen) with beta-arrestin/TEV protease fusion and UAS beta-lactamase reporter
Test: beta-arrestin/TEV beta-lactamase FRET reporter assay, antagonist mode
Type: cell-based
Conditions: read-out: Inhibit rate (%) at 10 μM
Source text: beta-arrestin/TEV beta-lactamase FRET reporter assay, antagonist mode on human H3R (histamine receptor 3)

T1 sequence (Q9Y5N1 whole entry, the tested form may be a part): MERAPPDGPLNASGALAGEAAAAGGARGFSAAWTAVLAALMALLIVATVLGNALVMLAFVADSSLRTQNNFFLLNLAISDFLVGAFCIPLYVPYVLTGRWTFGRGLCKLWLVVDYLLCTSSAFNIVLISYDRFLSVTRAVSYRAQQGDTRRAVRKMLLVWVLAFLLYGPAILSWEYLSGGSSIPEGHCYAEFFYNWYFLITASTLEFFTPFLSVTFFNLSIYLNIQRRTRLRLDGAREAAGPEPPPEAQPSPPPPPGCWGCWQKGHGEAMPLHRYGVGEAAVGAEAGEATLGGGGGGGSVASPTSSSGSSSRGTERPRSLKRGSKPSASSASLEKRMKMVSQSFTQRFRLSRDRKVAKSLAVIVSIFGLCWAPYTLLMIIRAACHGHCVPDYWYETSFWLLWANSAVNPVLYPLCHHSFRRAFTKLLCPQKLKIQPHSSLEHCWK

inhibition at 10 µM | SMILES
14.6% | COc1ccc(-c2coc3c(CN4CCCC4)c(O)ccc3c2=O)cc1 [2m, 7-hydroxy-3-(4-methoxyphenyl)-8-(pyrrolidin-1-ylmethyl)-4H-chromen-4-one]
18.7% | O=c1c(-c2ccc(O)cc2)coc2c(CN3CCCC3)c(O)ccc12 [2f, 7-hydroxy-3-(4-hydroxyphenyl)-8-(pyrrolidin-1-ylmethyl)-4H-chromen-4-one]
